Series [1] is described as follows: Absorption test, concentration of the compounds in serum by HPLC. Format: in vivo. The note with it: mouse, mice, 100 mg/kg body weight, oral administration, serum at 1, 3, 5 and 24 hours, read-out: time at which concentration in serum reached a maximum. How it is done:
An absorption test was performed using ketonitrile derivatives of the present invention (Compound Nos. […] and 155) on mice by dosing the derivatives in amounts of 100 mg/kg body weight. One, three, five, and 24 hours after administration of the compounds, blood was harvested and serum was separated therefrom. The concentration of the compounds in serum was determined by HPLC. As a result, Compound No. 155 and Compound No. 101 reached a maximum in concentration after 1 hour and 3 hours of administration, respectively.

Series [2] can be described thus: in vivo. The note with it: mouse, oral administration, single dose, suspended in aqueous 0.5% CMC solution, male mice, observed for 14 days. The procedure:
Acute toxicity (LD50) of a ketonitrile derivative of the present invention (Compound No. 4) was tested using male mice (Slc:ddY, 5 weeks old). To groups of each 5 mice, the compounds suspended in aqueous 0.5% CMC solution were forcibly dosed orally at a single time so that the final dosages of 707, 1,000, 1,414, and 2,000 mg/kg were attained. […] As a result, LD50 value under conditions of oral administration was estimated to be higher than 2,000 mg/kg. Thus, the compound was confirmed to be quite non-toxic.
To groups of each 5 mice, the compounds suspended in aqueous 0.5% CMC solution were forcibly dosed orally at a single time so that the final dosages of 500, 1,000, 1,500, and 2,000 mg/kg were attained. […] As a result, the LD50 value was estimated to be higher than 2,000 mg/kg. Thus, the compounds were confirmed to be quite non-toxic.

In series [3] the test system is Enterococcus from fish. Kind of series: Antibacterial activity (IC), agar as in Example 8, media with 1.5% NaCl, 25°C (Example 20, Tables 53-55). Format: cell-based. The note with it: for MIC: Enterococcus Seriolicida SE94-002. The gist of the method:
(§1)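 Growth inhibition was scored by turbidity after culture at 25°C, with IC bands set from 2-fold-dilution MIC-equivalents. Samples were tested at final 100, 10 and 1 µg/ml in Mueller-Hinton agar with 1.5% NaCl, seeded with 10^6 CFU/ml of the fish isolates.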

The test system of series [4] is Pasteurella from fish. Described as above. Format: cell-based. The note with it: for MIC: Pasteurella piscicida KP94-02. The gist of the method: as §1
The test system of series [5] is Pasteurella multocida (Kobe-6). Kind of series: Antibacterial activity (IC), agar as in Example 8 (Example 17, Table 50). Format: cell-based. The note with it: 18 h, origin pig. In short, it runs like this:
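Agar dilution on Mueller-Hinton agar with compound at 100, 10 and 1 µg/ml, inoculated at 10^6 CFU/ml with pig-origin strain Kobe-6. After 18 h at 37 °C, IC scored from turbidity and reported as a band (≤100, ≤10, ≤1 µg/ml).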

Series [6] deals with Streptococcus aureus (TI-1). Put plainly: Antibacterial activity (IC), agar as in Example 8 (Example 16, Table 49). The class given is cell-based. The conditions noted are these: 18 h. In short, it runs like this:
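Compound at final 100, 10 or 1 µg/ml in Mueller-Hinton agar, inoculated with […] aureus (TI-1) at 10^6 CFU/ml and cultured 37°C for 18 h. Inhibition read from medium turbidity; IC given as 100-10, 10-1 or ≤1 µg/ml ranges from 2-fold dilution.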

For series [7], the system named is methicillin-resistant Staphylococcus aureus (MRSA) from humans. Kind of series: Antibacterial activity (IC), agar as in Example 8 (Example 19, Table 52). The class given is cell-based. The note with it: 18 h. The gist of the method: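 MRSA human isolate at 10^6 CFU/ml on Mueller-Hinton agar containing compound at 100, 10 or 1 µg/ml, grown 18 h at 37 °C. IC is the lowest tested level that inhibited growth, binned as ≤100, ≤10 or ≤1 µg/ml.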

Series [8] deals with Staphylococcus aureus (209-P). Put plainly: Antibacterial activity (IC), agar as in Example 8 (Example 15, Table 48). The class given is cell-based. The conditions noted are these: 18 h. In short, it runs like this:
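Samples in DMSO, diluted with sterile water, incorporated into Mueller-Hinton agar at 1, 10 and 100 µg/ml final. Bacteria seeded at 10^6 CFU/ml and grown 18 h at 37°C. Inhibition read as turbidity; values reported as IC ranges rather than exact MICs.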

Series [9] deals with Bordetella bronchiseptica (S1). Kind of series: Antibacterial activity (IC), agar as in Example 8 (Example 18, Table 51). The class given is cell-based. The conditions noted are these: 18 h. How it is done: (§2) The antibacterial action was evaluated by the inhibitory concentration (hereinafter abbreviated as IC) at which propagation of the bacteria cultured at 37°C for 18 hours was inhibited. Inhibition was determined by the turbidity of the medium. The expressions "IC≤100", "≤10", and "≤1" indicate that MIC-equivalent values obtained at the succesive […] dilution of the sample are 100-10 µg/ml, 10-1 µg/ml, and not more than 1 µg/ml, respectively. […] (In the subsequent Examples, the same rule applies correspondingly.) Table 39
(§3) A suitable amount of a sample was dissolved in dimethylsulfoxide (DMSO), after which the resulting solution was diluted with the same amount of sterilized distilled water to prepare a bulk sample of 1,000 µg/ml. Separately, a bacterial liquid for the test (methicillin-resistant Staphylococcus aureus (MRSA) isolated from humans) which had been cultured in Mueller-Hinton broth (product of DIFCO) was prepared and inoculated to a Mueller-Hinton agar (product of DIFCO) containing the sample so that the final inoculation amount of 10^6 CFU/ml was achieved. The final concentrations of the samples were 100, 10, and 1 µg/ml.
(§4) After culturing at 37°C for 18 hours, the antibacterial activity was evaluated in terms of IC in a manner similar to that described in Example 4.
(§5) In a manner similar to that described in Example 8, antibacterial activity of the invention compound was determined. The bacterium used for the test was Bordetella bronchiseptica (S1) and Bordetella bronchiseptica (SM2-4).

Series [10] has as its system Bordetella bronchiseptica (SM2-4). The description is as above. The note with it: 18 h. Format: cell-based. The procedure:
as §2, §3, §4, §5

[11] abbreviates: Enterococcus Seriolicida KG86050.
[12] abbreviates: Enterococcus Seriolicida MS89060.
[13] abbreviates: Enterococcus Seriolicida MS89064.
Setting [14] is: Enterococcus Seriolicida MS89066.
The mark [15] stands for this setting: Enterococcus Seriolicida MS89068.
Where [16] appears, read: Enterococcus Seriolicida SE94-001.
[17] abbreviates: Enterococcus Seriolicida SE94-003.
The mark [18] stands for this setting: Enterococcus Seriolicida SE94-004.
[19] abbreviates: Enterococcus Seriolicida SE94-005.

This note sets out measurements from patent EP0768085A1, “ANTIBACTERIAL AGENT” (DAIICHI PHARMACEUTICAL CO., LTD., priority 1994, dated 1996).

Structures are written as SMILES. Converted amounts (≈) assume the structure as drawn.

Take `CC(Oc1cccc(Oc2ncc(C(F)(F)F)cc2Cl)c1)C(=O)C(C#N)c1ccc(Cl)c(Cl)c1` (stereo not drawn) [Compound No. 101, 4-[3-(3-chloro-5-trifluoromethyl-2-pyridyloxy)phenoxy]-2-(3,4-dichlorophenyl)-3-oxopentanonitrile]: the Tmax in series [1] was found to be 3 h.
`CC(Oc1cccc(Oc2ccc(C(F)(F)F)cc2Cl)c1)C(=O)C(C#N)c1ccc(Cl)c(Cl)c1` (stereo not drawn) [Compound No. 103, 4-[3-(2-chloro-4-trifluoromethylphenoxy)phenoxy]-2-(3,4-dichlorophenyl)-3-oxopentanonitrile]: the LD50 at 336 h in [2] is above 2000 mg/kg. Moreover, the IC in series [3] (Enterococcus Seriolicida HI), in series [3] (setting [11]), in series [3] (setting [12]), in series [3] (setting [13]), in [3] (setting [14]) and in [3] (setting [15]) was at most 1 µg/mL each time. For the same compound, the IC in series [3] (setting [16]) was at most 1 µg/mL; in [3] (setting [17]), at most 1 µg/mL; in series [3] (setting [18]), at most 1 µg/mL; in series [3] (setting [19]), at most 1 µg/mL; in series [4] (Pasteurella piscicida KP94-04), ≤10 (10-1 µg/ml); in [4] (Pasteurella piscicida KP94-05), ≤10 (10-1 µg/ml). The IC in series [4] (Pasteurella piscicida KP94-06) is recorded as ≤10 (10-1 µg/ml). Further, the MIC in [3] is at most 1 µg/mL; in series [4], 1 to 10 µg/mL (≈ 1.89 to 18.9 µM); in [5] it was 1 to 10 µg/mL (≈ 1.89 to 18.9 µM); in series [6], at most 1 µg/mL; in series [7] (MRSA strain 891179), at most 1 µg/mL; in series [7] (MRSA strain 891185), at most 1 µg/mL. Moreover, the MIC in [7] (MRSA strain 891187), in [7] (MRSA strain 891192), in [7] (MRSA strain 900048), in series [7] (MRSA strain 900056) and in series [8] was at most 1 µg/mL throughout.
Turning to `CC(Oc1cc(Oc2ccc(C(F)(F)F)cc2Cl)ccc1Cl)C(=O)C(C#N)c1cccc(Br)c1` (stereo not drawn) [Compound No. 155, 2-(3-bromophenyl)-4-[5-(2-chloro-4-trifluoromethylphenoxy)-2-chlorophenoxy]-3-oxopentanonitrile], the LD50 at 336 h in [2] is above 2000 mg/kg. For the same compound, the MIC in series [9] is 10 to 100 µg/mL (≈ 17.4 to 174 µM); in series [10], 10 to 100 µg/mL (≈ 17.4 to 174 µM); in [3], at most 1 µg/mL; in series [4], 10 to 100 µg/mL (≈ 17.4 to 174 µM); in series [5] it was 10 to 100 µg/mL (≈ 17.4 to 174 µM); in series [6], at most 1 µg/mL. Also, the MIC in series [7] (MRSA strain 891179), in [7] (MRSA strain 891185), in [7] (MRSA strain 891187), in series [7] (MRSA strain 891192), in series [7] (MRSA strain 900048) and in series [7] (MRSA strain 900056) was at most 1 µg/mL throughout. In series [8], this compound displayed an MIC of at most 1 µg/mL. For the same compound, the IC in [3] (Enterococcus Seriolicida HI), in series [3] (setting [11]), in [3] (setting [12]), in series [3] (setting [13]), in [3] (setting [14]) and in series [3] (setting [15]) was at most 1 µg/mL each time. Besides, the IC is at most 1 µg/mL in series [3] (setting [16]); at most 1 µg/mL in [3] (setting [17]); at most 1 µg/mL in [3] (setting [18]); at most 1 µg/mL in [3] (setting [19]); ≤100 (MIC-equivalent values obtained at the succesive 2-fold dilution of the sample are 100-10 µg/ml) in series [4] (Pasteurella piscicida KP94-04); ≤100 (MIC-equivalent values obtained at the succesive 2-fold dilution of the sample are 100-10 µg/ml) in [4] (Pasteurella piscicida KP94-05). Further, the IC in series [4] (Pasteurella piscicida KP94-06) is given as ≤100 (MIC-equivalent values obtained at the succesive 2-fold dilution of the sample are 100-10 µg/ml). In addition, the Tmax in [1] was found to be 1 h.
